Legend:
12-lipoxygenase [1] = molecular target: T1, 12-lipoxygenase (Rattus norvegicus, UniProt F1LQ70); assay: 12-Lipoxygenase Inhibition Activity (In Vitro), 12-HETE production by rat platelet enzyme solution; format: biochemical; settings: [14C]-arachidonic acid, 5 min pre-incubation at 37° C., 5 min reaction, read-out: Inhibition rate (%) of 12-HETE production; for inhibition at 1 µM: 10^-6 M; for inhibition at 0.1 µM: 10^-7 M
T1 construct: the frozen platelet rich plasma was allowed to melt and then subjected to ultrasonic treatment in ice water so that an enzyme solution was obtained; from tissue; host or cells: rat platelets (washed, frozen, sonicated; crude enzyme solution)
T1 sequence (F1LQ70 1-663): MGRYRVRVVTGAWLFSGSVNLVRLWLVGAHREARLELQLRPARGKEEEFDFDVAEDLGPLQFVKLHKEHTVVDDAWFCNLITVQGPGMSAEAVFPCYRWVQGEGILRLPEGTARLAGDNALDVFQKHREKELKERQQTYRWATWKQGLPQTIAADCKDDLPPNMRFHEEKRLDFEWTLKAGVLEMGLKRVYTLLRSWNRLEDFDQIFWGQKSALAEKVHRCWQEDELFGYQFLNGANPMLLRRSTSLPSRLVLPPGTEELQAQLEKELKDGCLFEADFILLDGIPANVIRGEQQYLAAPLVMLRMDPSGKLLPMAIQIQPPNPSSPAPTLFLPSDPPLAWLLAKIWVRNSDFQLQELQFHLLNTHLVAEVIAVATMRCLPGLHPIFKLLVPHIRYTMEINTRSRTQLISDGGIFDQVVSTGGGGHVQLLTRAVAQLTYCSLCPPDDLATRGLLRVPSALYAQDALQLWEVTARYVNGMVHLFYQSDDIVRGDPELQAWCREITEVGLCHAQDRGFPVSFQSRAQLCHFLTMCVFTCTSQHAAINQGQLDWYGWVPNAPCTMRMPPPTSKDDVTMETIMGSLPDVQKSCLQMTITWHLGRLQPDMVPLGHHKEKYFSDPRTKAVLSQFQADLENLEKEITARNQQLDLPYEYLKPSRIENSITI
Description: The 12-lipoxygenase inhibition activity of each test compound according to the present invention was measured in the following manner.
Firstly, blood was collected from the heart of a rat (while using sodium citrate as an anticoagulant), and platelet rich plasma was prepared by a method known per se in the art. The platelet rich plasma was washed twice with a isotonic buffer (A) [134 mM of NaCl, 5 mM of D-glucose, 1 mM of EDTA, 1 mM of EGTA, 15 mM of tris-HCl (pH 7.4)] and was then frozen and stored at -80° C. Prior to a pharmacological test, the frozen platelet rich plasma was allowed to melt and then subjected to ultrasonic treatment in ice water so that an enzyme solution was obtained. To the isotonic buffer (A), 1 mM of GSH, the test compound (adjusted to have the final concentrations of 1 μM and 0.1 μM) and the enzyme solution (300-500 μg of protein) were added. Subsequent to pre-incubation at 37° C. for 5 minutes, [^14 C]-arachidonic acid (0.05 μCi) (final concentration: […]) was added to react it for 5 minutes. After the reaction was terminated, the reaction mixture was spread over a thin layer plate of silica gel to conduct autoradiography. 12-HETE was identified and a reduction in its production was determined as an index for its 12-lipoxygenase inhibition activity.

[2] = tested on: 12-Lipoxygenase in platelets; assay: 12-Lipoxygenase Inhibition Activity in Platelets (Extro Vivo); set-up: species or system SD rat; settings: 1.0 mg/kg i.v., blood 10 min after administration; base preparation group = 100%
Description: Under anesthesia with pentobarbital, an SD rat (8 week-old, male) was intravenously administered with a polyethylene glycol solution containing 1.0 mg/kg of a test compound. Ten minutes after the administration, blood was collected from the abdominal vena cava, and the inhibitory activity was measured as in the above test (1).
Setting at 100% the amount of 12-HETE of the group in which a base preparation was administered instead of the drugs, the results, namely, the amount of 12-HETE obtained when each test drug was administered was indicated in terms of %.

12-lipoxygenase [3] = settings: conventionally known compound; cited from earlier work

| Structure (SMILES) | inhibition at 1 µM (12-lipoxygenase [1]) | inhibition at 0.1 µM (12-lipoxygenase [1]) | inhibitory effect on amount of 12-HETE [2] | 12-lipoxygenase inhibitory action (12-lipoxygenase [3]) |
| --- | --- | --- | --- | --- |
| CCOC(=O)Oc1ccc(C=C(C#N)C(=O)OCCc2ccccc2)cc1OC(=O)OCC [Compound 1, phenethyl 2-cyano-3-(3,4-diethoxycarbonyloxyphenyl)-2-propenoate] | 85.4% | 52.9% | 30% | – |
| CCOC(=O)Oc1ccc(C=C(C#N)C(=O)OCC)cc1OC(=O)OCC [Compound 6, ethyl 2-cyano-3-(3,4-diethoxycarbonyloxyphenyl)-2-propenoate] | – | 60.3% | – | – |
| CCC[C@H](OC(=O)C(C#N)=Cc1ccc(OC(=O)OCC)c(OC(=O)OCC)c1)c1ccccc1 [Compound 7, (S)-(-)-1-phenylbutyl 2-cyano-3-(3,4-diethoxycarbonyloxyphenyl)-2-propenoate] | 75.6% | 40.8% | – | – |
| CCC[C@@H](OC(=O)C(C#N)=Cc1ccc(OC(=O)OCC)c(OC(=O)OCC)c1)c1ccccc1 [Compound 8, (R)-(+)-1-phenylbutyl 2-cyano-3-(3,4-diethoxycarbonyloxyphenyl)-2-propenoate] | 65.1% | 9.4% | – | – |
| CCOC(=O)Oc1ccc(C=C(C#N)C(=O)OC(C)Cc2ccccc2)cc1OC(=O)OCC (centres unmarked) [Compound 9, 1-methyl-2-phenylethyl 2-cyano-3-(3,4-diethoxycarbonyloxyphenyl)-2-propenoate] | 71.8% | 4.2% | – | – |
| CCOC(=O)Oc1ccc(C=C(C#N)C(=O)OCCc2ccsc2)cc1OC(=O)OCC [Compound 10, 2-(3-thienyl)-ethyl 2-cyano-3-(3,4-diethoxycarbonyloxyphenyl)-2-propenoate] | 79.3% | 38.7% | – | – |
| CCOC(=O)Oc1ccc(C=C(C#N)C(=O)OCc2ccco2)cc1OC(=O)OCC [Compound 11, 2-furylmethyl 2-cyano-3-(3,4-diethoxycarbonyloxyphenyl)-2-propenoate] | 53.8% | 23.5% | – | – |
| CCOC(=O)Oc1ccc(C=C(C#N)C(=O)OCCCc2ccccn2)cc1OC(=O)OCC [Compound 12, 3-(2-pyridyl)-propyl 2-cyano-3-(3,4-diethoxycarbonyloxyphenyl)-2-propenoate] | 68.4% | 16.3% | – | – |
| CCOC(=O)Oc1ccc(C=C(C#N)C(=O)OCCCc2cccnc2)cc1OC(=O)OCC [Compound 13, 3-(3-pyridyl)-propyl 2-cyano-3-(3,4-diethoxycarbonyloxyphenyl)-2-propenoate] | 40.8% | < 0% | – | – |
| CCOC(=O)Oc1ccc(C=C(C#N)C(=O)OCc2ccsc2)cc1OC(=O)OCC [Compound 14, 3-thienylmethyl 2-cyano-3-(3,4-diethoxycarbonyloxyphenyl)-2-propenoate] | 64.6% | 34.6% | – | – |
| CCOC(=O)Oc1cc(C=C(C#N)C(=O)OCCc2ccccc2)ccc1O [Compound 17, phenethyl 2-cyano-3-(3-ethoxycarbonyloxy-4-hydroxyphenyl)-2-propenoate] | 75.9% | 59.3% | 18% | – |
| CCOC(=O)Oc1ccc(C=C(C#N)C(=O)OCCc2cccs2)cc1OC(=O)OCC [Compound 18, 2-(2-thienyl)-ethyl 2-cyano-3-(3,4-diethoxycarbonyloxyphenyl)-2-propenoate] | – | 65.8% | – | – |
| COC(=O)Oc1ccc(C=C(C#N)C(=O)OCCc2cccs2)cc1OC(=O)OC [Compound 19, 2-(2-thienyl)-ethyl 2-cyano-3-(3,4-dimethoxycarbonyloxyphenyl)-2-propenoate] | 50.8% | 4.6% | – | – |
| CC(C)COC(=O)Oc1ccc(C=C(C#N)C(=O)OCCc2cccs2)cc1OC(=O)OCC(C)C [Compound 20, 2-(2-thienyl)-ethyl 2-cyano-3-(3,4-diisobutoxycarbonyloxyphenyl)-2-propenoate] | 63.4% | 41.2% | – | – |
| N#CC(=Cc1ccc(OC(=O)OCc2ccccc2)c(OC(=O)OCc2ccccc2)c1)C(=O)OCCc1cccs1 [Compound 21, 2-(2-thienyl)-ethyl 2-cyano-3-(3,4-dibenzyloxycarbonyloxyphenyl)-2-propenoate] | 41.6% | < 0% | – | – |
| CCCCCCCOC(=O)Oc1ccc(C=C(C#N)C(=O)OCCc2cccs2)cc1OC(=O)OCCCCCCC [Compound 22, 2-(2-thienyl)-ethyl 2-cyano-3-(3,4-diheptoxycarbonyloxyphenyl)-2-propenoate] | 27.6% | 14% | – | – |
| CCOC(=O)Oc1cc(C=C(C#N)C(=O)OCCc2cccs2)ccc1O [Compound 23, 2-(2-thienyl)-ethyl 2-cyano-3-(3-ethoxycarbonyloxy-4-hydroxyphenyl)-2-propenoate] | 84.5% | 64.5% | – | – |
| CCOC(=O)Oc1cc(C=C(C#N)C(=O)OCCc2cccs2)cc(OC(=O)OCC)c1OC(=O)OCC [Compound 29, 2-(2-thienyl)-ethyl 2-cyano-3-(3,4,5-triethoxycarbonyloxyphenyl)-2-propenoate] | 59.2% | 25.1% | – | – |
| N#CC(=Cc1ccc2oc(=O)oc2c1)C(=O)OCCc1cccs1 [Compound 34, 2-(2-thienyl)-ethyl 2-cyano-3-(3,4-cyclic dioxolonylphenyl)-2-propenoate] | – | 91.5% | – | – |
| N#CC(=Cc1ccc2oc(=O)oc2c1)C(=O)OCCc1ccccc1 [Compound 35, phenethyl 2-cyano-3-(3,4-cyclic dioxolonylphenyl)-2-propenoate] | 82.9% | 56.6% | – | – |
| N#CC(=Cc1ccc2oc(=O)oc2c1)C(=O)Oc1ccccc1 [Compound 36, phenyl 2-cyano-3-(3,4-cyclic dioxolonylphenyl)-2-propenoate] | – | 75.6% | – | – |
| O=c1cc(-c2ccccc2)oc2cc(O)c(O)c(O)c12 [baicalein] | – | – | – | 12-lipoxygenase inhibitory action |

— patent publication US5232941A, “Caffeic acid derivatives and pharmaceutical compositions containing the same” (Suntory Limited, priority 1990, dated 1993)
